{"source": "paper PMC8151276", "about": "“An Integrated Approach toward NanoBRET Tracers for Analysis of GPCR Ligand Engagement” (Molecules, 2021)", "data": [{"biological_target": "T1, GCGR (Homo sapiens, UniProt P47871)", "T1 construct": "purchased Promega (in-house HiBiT-GPCR construct library, NanoBRET)", "T1 sequence (P47871 26-477)": "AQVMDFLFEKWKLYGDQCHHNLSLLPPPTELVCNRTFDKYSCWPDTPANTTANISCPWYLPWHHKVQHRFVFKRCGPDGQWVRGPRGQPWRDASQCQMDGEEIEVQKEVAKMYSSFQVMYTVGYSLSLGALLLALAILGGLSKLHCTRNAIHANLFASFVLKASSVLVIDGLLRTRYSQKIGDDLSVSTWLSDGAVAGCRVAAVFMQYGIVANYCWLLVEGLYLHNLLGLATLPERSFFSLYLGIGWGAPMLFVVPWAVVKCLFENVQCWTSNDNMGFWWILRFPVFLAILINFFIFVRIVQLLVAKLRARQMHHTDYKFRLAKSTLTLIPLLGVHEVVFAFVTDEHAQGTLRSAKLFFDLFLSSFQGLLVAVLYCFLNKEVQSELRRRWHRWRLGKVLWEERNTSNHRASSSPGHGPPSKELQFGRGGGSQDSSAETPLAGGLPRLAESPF", "assay": "NanoBRET screen HiBiT-GCGR in HEK293", "assay_type": "binding", "conditions": "GCGR; tracer 0.1μM", "method": "(§1) Each tracer candidate was screened across the entire library of HiBiT-GPCR constructs using NanoBRET as the detection modality. As depicted in Figure 4A, the specificity of interactions was evaluated through decrease in BRET due to competitive displacement of a bound tracer by excess parental compound. Each tracer was analyzed for binding to each HiBiT-GPCR fusion in the absence and in the presence of competing parental compound. Briefly, HEK293 cells were transfected with HiBiT-GPCR constructs diluted into promoterless DNA to reduce expression and maximize translocation to the cell surface. Each tracer candidate was then screened at concentrations of 1 μM and 0.1 μM across cells expressing these fusions. Cells were treated for 1.5 h with tracer either alone or in the presence of 20 μM competing parental compound (i.e., control). BRET was measured upon addition of purified LgBiT and subsequent complementation with HiBiT genetically fused to a GPCR. The specificity of interactions was assessed through a decrease in BRET signal due to competitive displacement of the bound tracer. To further gauge the robustness of these interactions, the fold response over the control (i.e., BRETtracer/BRETcontrol) was calculated. We chose a 1.5-fold response, which translates to ≥7-fold signal over noise as the minimal threshold required to score an interaction as positive. […]. Below we highlight the screening results obtained for our exemplary fluorescent tracers based on Clozapine, Amitriptyline and AZD1283.\n(§2) HiBiT-GPCR DNA constructs were diluted in 10 mM Tris pH 8 to a final concentration of 0.01 μg/μL, arrayed in 96-well plates and stored at −20 °C. For transfection, HEK293 cells were suspended in Opti-MEM (without phenol red) supplemented with 2% fetal bovine serum (Seradigm) and 100 units/mL penicillin–streptomycin (Gibco) at a final concentration of 220,000 cells/mL and dispensed into white 96-well plates at 90 μL/well. Subsequent transfections and screens were carried using an Agilent Bravo Automated Liquid Handling Platform. First, the 96-well HiBiT DNA arrays were diluted 25-fold in Opti-MEM (without serum or phenol red) to a final concentration of 0.0004 μg/μL and 20 μL of the diluted DNAs were transferred into new 96-well plates. Next, promoterless carrier DNA (1 μg/μL) was diluted 25-fold (0.04 μg/μL) and then dispensed into the diluted arrays at 20 μL/well. Following brief mixing, Viafect transfection reagent (Promega) diluted 16-fold into Opti-MEM was dispensed into the plates at 40 μL/well. After mixing by pipetting, plates were incubated for 10 min on the pipetting station deck. The DNA-transfection reagent complexes were then added to plates containing cells. To facilitate the screen, 10 μL of DNA-transfection reagent complexes were added in duplicates to the top 4 and bottom 4 rows, resulting in two identical 48-well arrays per plate. Plates with transfected cells were incubated for 18–20 h at 37 °C/5% CO2. A screen of each tracer across the entire library using two different concentrations requires duplicate plates of transfected cells. Depending on the number of tracers being screened, transfections can be scaled up using the same ratios. The next day, for each tracer, four 20× screening solutions in tracer dilution buffer (Promega) were prepared: two duplicates at final concentration of 20 μM and two duplicates at a final concentration of 2 μM. A competing unmodified compound was added to one of each duplicate at a final concentration of 400 μM. The four resulting solutions were diluted 4-fold in Opti-MEM without serum or phenol red to generate 5× solutions (5 µM and 0.5 µM tracer +/− 100 μM competing compound). To screen the library, a BioTek MultiFlo FX liquid dispenser was used to dispense 22.5 µL of tracer solution to the top 4 rows and 22.5 µL tracer + competing compound solution to the 4 bottom rows. Plates were briefly mixed on an orbital shaker and incubated for 1.5 h at room temperature. […]", "values": [{"smiles": "Cc1cc2c(s1)Nc1ccccc1N=C2N1CCN(CCCNC(=O)CCOCCOCCOCCOCCNC(=O)CCc2ccc3n2[B-](F)(F)[N+]2=C(c4ccc[nH]4)C=CC2=C3)CC1", "note": "[Olanzapine-a-2-NB590]", "NanoBRET Fold Response": 0.97}, {"smiles": "CN(C)CCC=C1c2ccccc2CCc2ccc(C(=O)NCCNC(=O)CCOCCOCCOCCOCCNC(=O)CCc3ccc4n3[B-](F)(F)[N+]3=C(c5ccc[nH]5)C=CC3=C4)cc21", "note": "[Amitriptyline-b-2-NB590]", "NanoBRET Fold Response": 0.91}, {"smiles": "Cc1nc2n(c(=O)c1CCN1CCC(c3noc4cc(F)ccc34)CC1)CCCC2OC(=O)NCCOCCOCCOCCOCCNC(=O)CCc1ccc2n1[B-](F)(F)[N+]1=C(c3ccc[nH]3)C=CC1=C2", "note": "(stereo not drawn) [Risperidone-2-NB590]", "NanoBRET Fold Response": 0.97}]}, {"biological_target": "T1, GCGR", "assay": "NanoBRET screen HiBiT-GCGR in HEK293", "assay_type": "binding", "conditions": "GCGR; tracer 1μM", "method": "as §1, §2", "values": [{"smiles": "Cc1cc2c(s1)Nc1ccccc1N=C2N1CCN(CCCNC(=O)CCOCCOCCOCCOCCNC(=O)CCc2ccc3n2[B-](F)(F)[N+]2=C(c4ccc[nH]4)C=CC2=C3)CC1", "note": "[Olanzapine-a-2-NB590]", "NanoBRET Fold Response": 0.95}, {"smiles": "CN(C)CCC=C1c2ccccc2CCc2ccc(C(=O)NCCNC(=O)CCOCCOCCOCCOCCNC(=O)CCc3ccc4n3[B-](F)(F)[N+]3=C(c5ccc[nH]5)C=CC3=C4)cc21", "note": "[Amitriptyline-b-2-NB590]", "NanoBRET Fold Response": 1.03}, {"smiles": "Cc1nc2n(c(=O)c1CCN1CCC(c3noc4cc(F)ccc34)CC1)CCCC2OC(=O)NCCOCCOCCOCCOCCNC(=O)CCc1ccc2n1[B-](F)(F)[N+]1=C(c3ccc[nH]3)C=CC1=C2", "note": "(stereo not drawn) [Risperidone-2-NB590]", "NanoBRET Fold Response": 0.93}]}, {"biological_target": "T2, PTGDR2 (Homo sapiens, UniProt Q9Y5Y4)", "T2 construct": "purchased Promega (in-house HiBiT-GPCR construct library, NanoBRET)", "T2 sequence (Q9Y5Y4 1-395)": "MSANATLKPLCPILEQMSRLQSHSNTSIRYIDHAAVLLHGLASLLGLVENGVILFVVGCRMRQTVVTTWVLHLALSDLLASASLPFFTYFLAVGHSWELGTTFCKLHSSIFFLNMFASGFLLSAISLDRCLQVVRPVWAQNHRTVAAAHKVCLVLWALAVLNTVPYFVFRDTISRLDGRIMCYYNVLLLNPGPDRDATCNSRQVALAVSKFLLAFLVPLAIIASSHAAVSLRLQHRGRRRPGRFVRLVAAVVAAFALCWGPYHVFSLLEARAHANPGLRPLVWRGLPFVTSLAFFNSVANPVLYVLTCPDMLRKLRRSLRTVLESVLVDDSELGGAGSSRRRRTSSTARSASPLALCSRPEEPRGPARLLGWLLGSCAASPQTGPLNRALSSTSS", "assay": "NanoBRET screen HiBiT-PTGDR2 in HEK293", "assay_type": "binding", "conditions": "PTGDR2; tracer 0.1μM", "method": "as §1, §2", "values": [{"smiles": "Cc1cc2c(s1)Nc1ccccc1N=C2N1CCN(CCCNC(=O)CCOCCOCCOCCOCCNC(=O)CCc2ccc3n2[B-](F)(F)[N+]2=C(c4ccc[nH]4)C=CC2=C3)CC1", "note": "[Olanzapine-a-2-NB590]", "NanoBRET Fold Response": 0.97}, {"smiles": "Cc1nc2n(c(=O)c1CCN1CCC(c3noc4cc(F)ccc34)CC1)CCCC2OC(=O)NCCOCCOCCOCCOCCNC(=O)CCc1ccc2n1[B-](F)(F)[N+]1=C(c3ccc[nH]3)C=CC1=C2", "note": "(stereo not drawn) [Risperidone-2-NB590]", "NanoBRET Fold Response": 0.99}]}, {"biological_target": "T2, PTGDR2", "assay": "NanoBRET screen HiBiT-PTGDR2 in HEK293", "assay_type": "binding", "conditions": "PTGDR2; tracer 1μM", "method": "as §1, §2", "values": [{"smiles": "Cc1cc2c(s1)Nc1ccccc1N=C2N1CCN(CCCNC(=O)CCOCCOCCOCCOCCNC(=O)CCc2ccc3n2[B-](F)(F)[N+]2=C(c4ccc[nH]4)C=CC2=C3)CC1", "note": "[Olanzapine-a-2-NB590]", "NanoBRET Fold Response": 0.96}, {"smiles": "Cc1nc2n(c(=O)c1CCN1CCC(c3noc4cc(F)ccc34)CC1)CCCC2OC(=O)NCCOCCOCCOCCOCCNC(=O)CCc1ccc2n1[B-](F)(F)[N+]1=C(c3ccc[nH]3)C=CC1=C2", "note": "(stereo not drawn) [Risperidone-2-NB590]", "NanoBRET Fold Response": 0.96}]}, {"biological_target": "T2, PTGDR2", "assay": "NanoBRET screen HiBiT-PTGDR2 in HEK293", "assay_type": "binding", "conditions": "tracer at 0.1μM", "method": "as §1, §2", "values": [{"smiles": "CN(C)CCC=C1c2ccccc2CCc2ccc(C(=O)NCCNC(=O)CCOCCOCCOCCOCCNC(=O)CCc3ccc4n3[B-](F)(F)[N+]3=C(c5ccc[nH]5)C=CC3=C4)cc21", "note": "[Amitriptyline-b-2-NB590]", "NanoBRET Fold Response": 1.00}]}, {"biological_target": "T2, PTGDR2", "assay": "NanoBRET screen HiBiT-PTGDR2 in HEK293", "assay_type": "binding", "conditions": "tracer at 1μM", "method": "as §1, §2", "values": [{"smiles": "CN(C)CCC=C1c2ccccc2CCc2ccc(C(=O)NCCNC(=O)CCOCCOCCOCCOCCNC(=O)CCc3ccc4n3[B-](F)(F)[N+]3=C(c5ccc[nH]5)C=CC3=C4)cc21", "note": "[Amitriptyline-b-2-NB590]", "NanoBRET Fold Response": 1.00}]}, {"biological_target": "T3, F2RL2 (Homo sapiens, UniProt O00254)", "T3 construct": "purchased Promega (in-house HiBiT-GPCR construct library, NanoBRET)", "T3 sequence (O00254 22-374)": "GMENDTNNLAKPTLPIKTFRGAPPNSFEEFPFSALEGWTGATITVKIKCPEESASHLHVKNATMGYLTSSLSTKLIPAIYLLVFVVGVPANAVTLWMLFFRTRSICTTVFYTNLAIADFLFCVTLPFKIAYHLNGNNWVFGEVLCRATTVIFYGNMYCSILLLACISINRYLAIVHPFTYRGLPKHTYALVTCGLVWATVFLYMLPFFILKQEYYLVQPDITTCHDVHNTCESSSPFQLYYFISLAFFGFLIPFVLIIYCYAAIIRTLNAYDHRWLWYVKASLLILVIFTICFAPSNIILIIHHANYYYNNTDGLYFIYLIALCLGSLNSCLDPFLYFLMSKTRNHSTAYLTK", "assay": "NanoBRET screen HiBiT-F2RL2 in HEK293", "assay_type": "binding", "conditions": "F2RL2; tracer 0.1μM", "method": "as §1, §2", "values": [{"smiles": "Cc1cc2c(s1)Nc1ccccc1N=C2N1CCN(CCCNC(=O)CCOCCOCCOCCOCCNC(=O)CCc2ccc3n2[B-](F)(F)[N+]2=C(c4ccc[nH]4)C=CC2=C3)CC1", "note": "[Olanzapine-a-2-NB590]", "NanoBRET Fold Response": 0.97}, {"smiles": "Cc1nc2n(c(=O)c1CCN1CCC(c3noc4cc(F)ccc34)CC1)CCCC2OC(=O)NCCOCCOCCOCCOCCNC(=O)CCc1ccc2n1[B-](F)(F)[N+]1=C(c3ccc[nH]3)C=CC1=C2", "note": "(stereo not drawn) [Risperidone-2-NB590]", "NanoBRET Fold Response": 0.94}]}, {"biological_target": "T3, F2RL2", "assay": "NanoBRET screen HiBiT-F2RL2 in HEK293", "assay_type": "binding", "conditions": "F2RL2; tracer 1μM", "method": "as §1, §2", "values": [{"smiles": "Cc1cc2c(s1)Nc1ccccc1N=C2N1CCN(CCCNC(=O)CCOCCOCCOCCOCCNC(=O)CCc2ccc3n2[B-](F)(F)[N+]2=C(c4ccc[nH]4)C=CC2=C3)CC1", "note": "[Olanzapine-a-2-NB590]", "NanoBRET Fold Response": 1.01}, {"smiles": "Cc1nc2n(c(=O)c1CCN1CCC(c3noc4cc(F)ccc34)CC1)CCCC2OC(=O)NCCOCCOCCOCCOCCNC(=O)CCc1ccc2n1[B-](F)(F)[N+]1=C(c3ccc[nH]3)C=CC1=C2", "note": "(stereo not drawn) [Risperidone-2-NB590]", "NanoBRET Fold Response": 1.08}]}, {"biological_target": "T3, F2RL2", "assay": "NanoBRET screen HiBiT-F2RL2 in HEK293", "assay_type": "binding", "conditions": "tracer at 0.1μM", "method": "as §1, §2", "values": [{"smiles": "CN(C)CCC=C1c2ccccc2CCc2ccc(C(=O)NCCNC(=O)CCOCCOCCOCCOCCNC(=O)CCc3ccc4n3[B-](F)(F)[N+]3=C(c5ccc[nH]5)C=CC3=C4)cc21", "note": "[Amitriptyline-b-2-NB590]", "NanoBRET Fold Response": 1.16}]}, {"biological_target": "T3, F2RL2", "assay": "NanoBRET screen HiBiT-F2RL2 in HEK293", "assay_type": "binding", "conditions": "tracer at 1μM; listed as amitriptyline-b-2-NB590", "method": "as §1, §2", "values": [{"smiles": "CN(C)CCC=C1c2ccccc2CCc2ccc(C(=O)NCCNC(=O)CCOCCOCCOCCOCCNC(=O)CCc3ccc4n3[B-](F)(F)[N+]3=C(c5ccc[nH]5)C=CC3=C4)cc21", "note": "[Amitriptyline-b-2-NB590]", "NanoBRET Fold Response": 0.92}]}]}
